Measurements reported in patent US12195479B2, “Five- and six-membered compound, and preparation method therefor and pharmaceutical composition and use thereof” (HANGZHOU POLYMED BIOPHARMACEUTICALS, INC., priority 2021, dated 2025).

Assays:
IRAK4 kinase = molecular target: T1, IRAK4 kinase (Homo sapiens, UniProt Q9NWZ3); assay: Kinase inhibition, fluorescence microfluidic mobility shift assay (IRAK4); assay type: biochemical; conditions: substrate peptide FAM-P8 3 μM, ATP 10 μM; one hour at 28° C.; assayed in duplicate
T1 sequence (Q9NWZ3 1-460): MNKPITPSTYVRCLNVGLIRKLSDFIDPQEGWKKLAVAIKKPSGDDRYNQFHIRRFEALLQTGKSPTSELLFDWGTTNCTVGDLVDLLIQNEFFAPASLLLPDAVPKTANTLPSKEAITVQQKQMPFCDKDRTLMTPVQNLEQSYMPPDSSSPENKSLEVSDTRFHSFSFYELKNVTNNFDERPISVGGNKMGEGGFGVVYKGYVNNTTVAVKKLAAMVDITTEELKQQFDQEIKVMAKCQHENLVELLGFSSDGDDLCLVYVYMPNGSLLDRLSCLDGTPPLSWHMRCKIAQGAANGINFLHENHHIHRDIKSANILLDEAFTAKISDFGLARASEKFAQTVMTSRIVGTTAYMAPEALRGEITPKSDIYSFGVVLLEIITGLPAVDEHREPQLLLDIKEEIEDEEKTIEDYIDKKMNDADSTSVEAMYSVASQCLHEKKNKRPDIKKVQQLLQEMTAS

FLT3 kinase = molecular target: T2, FLT3 kinase (Homo sapiens, UniProt P36888); assay: Kinase inhibition, fluorescence microfluidic mobility shift assay (FLT3); assay type: biochemical; conditions: substrate peptide FAM-P2 3 μM, ATP 97 μM; one hour at 28° C.; assayed in duplicate
T2 sequence (P36888 564-993): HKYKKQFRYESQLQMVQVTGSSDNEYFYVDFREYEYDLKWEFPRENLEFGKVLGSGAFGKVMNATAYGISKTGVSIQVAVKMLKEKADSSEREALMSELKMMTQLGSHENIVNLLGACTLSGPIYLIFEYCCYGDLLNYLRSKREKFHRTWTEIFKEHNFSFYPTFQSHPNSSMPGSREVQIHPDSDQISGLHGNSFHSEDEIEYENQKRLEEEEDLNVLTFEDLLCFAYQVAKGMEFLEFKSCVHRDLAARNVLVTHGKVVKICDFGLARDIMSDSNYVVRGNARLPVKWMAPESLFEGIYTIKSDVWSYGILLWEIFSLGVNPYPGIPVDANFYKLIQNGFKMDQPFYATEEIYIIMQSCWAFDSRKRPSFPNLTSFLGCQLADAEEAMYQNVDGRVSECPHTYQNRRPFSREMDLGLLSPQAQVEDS
Protocol: Based on the experimental method of fluorescence microfluidic mobility shift assay, the IC50 value of the compound for competitive binding of ATP to kinases IRAK4 and FLT3 was determined. The initial detection concentration of the compound was 10 μM, which was diluted to 0.38 nM with a 4-fold gradient and assayed in duplicate. In this case, commercially available staurosporine was the standard control for the assay.
Information on reagents and consumables is as follows: • IRAK4 kinase (Carna, Cat. No. 09-145, Lot. No. 14CBS-0020 H) • FLT3 kinase (Carna, Cat. No. 08-154, Lot. No. 07CBS-2350) • Substrate peptide FAM-P2 (GL Biochem, Cat. No. 112394, Lot. No. P131014-XP112394) • Substrate peptide FAM-P8 (GL Biochem, Cat. No. 112396, Lot. No. P170731-SY112396) • ATP (adenosine triphosphate, Sigma, Cat. No. A7699-1G, CAS No. 987-65-5) • DMSO (dimethyl sulfoxide, Sigma, Cat. No. D2650) • EDTA (ethylenediaminetetraacetic acid, Sigma, Cat. No. E5134, CAS No. 60-00-4) • Staurosporine (Selleckchem, Cat. No. 51421) • HEPES (4-(2-Hydroxyethyl)-1-piperazineethanesulfonic acid, Gibco, Cat. No. 15630-080) • Brij-35 solution (Polyoxyethylene lauryl ether, Sigma, Cat. No. B41840-100 mL) • DTT (dithiothreitol, Sigma, Cat. No. D0632-20G) • 0.2% Coating Reagent #3 (0.2% coating reagent, Perkin Elmer, Cat. No. 760050) • 96-well plate (Corning, Cat. No. 3365) • 384-well plate (Corning, Cat. No. 3573) Experimental operation method: • 1) FLT3 and IRAK4 kinases were dissolved in the kinase buffer (50 mM HEPES pH 7.5, 10 mM MgCl2, 2 mM DTT, and 0.01% Brij-35) at final concentrations of 0.9 nM, 30 nM, and 6 nM, respectively. • 2) The substrate peptide FAM-P2 and the substrate peptide FAM-P8, together with ATP, were dissolved in the above kinase buffer, respectively, where the final concentrations of the substrate peptide FAM-P2 and ATP for the determination of FLT3 were 3 μM and 97 μM, respectively; and the final concentrations of the substrate peptide FAM-P8 and ATP for the determination of IRAK4 were 3 μM and 10 μM, respectively. • 3) Compound dilution: The compound was first diluted to 50 μM, and then diluted downward with DMSO in a 4-fold gradient. In this case, the solution without compound and kinase served as the blank control, corresponding to the “minimum value” shown below; the solution without compound but containing kinase, adenosine triphosphate, DMSO, and the buffer served as the positive control, corresponding to the “maximum value” shown below. • 4) Kinase reaction and termination: 10 μL of the kinase buffer was added to a 384-well plate containing 5 μL of the compound to be tested, and the mixture was incubated for 10 minutes at room temperature; another 10 μL, of buffer containing the substrate peptide and adenosine triphosphate was added to the 384-well plate, and after incubation for one hour at 28° C., 25 μL, of termination solution (100 mM HEPES pH 7.5, 50 mM EDTA, 0.2% Coating Reagent #3, and 0.015% Brij-35) was added to each well for reaction termination. • 5) Data reading: CaliperEZ Reader II instrument was used to read the conversion rate data. Setting conditions: downstream voltage as −500 V, upstream voltage as −2250 V, base pressure as −0.5 PSI, and screening pressure as −1.2 PSI. • 6) Data calculation: the conversion rate data was copied from CaliperEZ Reader II, and the conversion rate was converted into inhibition rate data.

MV4-11 cells = assay: Cytotoxicity against MV4-11 cells (CellTiter-Glo); assay type: cell-based; conditions: Homo sapiens, incubated for 72 hours, CellTiter-Glo chemiluminescence
Protocol: Determination of the IC50 Value of the Compound's Cytotoxicity Against MV4-11 Cells
MV-4-11 cells were cultured with IMDM complete medium (IMDM+10% fetal bovine serum+1% Penicillin-Streptomycin, a mixture of penicillin-streptomycin). • 2. MV-4-11 cells in good condition were collected and washed twice with DPBS ([…] phosphate buffered saline solution). • 3. MV-4-11 cells were resuspended with IMDM complete medium, the cell density was adjusted to 1.11×10^6 cells/mL, and the MV-4-11 cells were added to 96-well plates at 90 μL per well. • 4. A compound solution with 10-fold concentration was prepared with IMDM complete medium, 10 μL of the compound solution with 10-fold concentration was added to the cells in the 96-well plate, mixed well, and then the 96-well plate was placed in a 5% CO2 incubator at 37° C. and incubated for 72 hours. • 5. After the incubation, the 96-well plate was taken out and equilibrated for 30 minutes at room temperature. Then 100 μL of CellTiter Glo reagent was added to each well and mixed on a horizontal shaker for 2 minutes. • 6. The 96-well plate was removed, equilibrated at room temperature for 10 minutes, and the chemiluminescence value was detected on a microplate reader.

COc1cc2nn(C3CCNCC3)cc2cc1NC(=O)c1ccn(-c2ccnc(C)c2)n1 [II-11C]
IC50 (IRAK4 kinase): 6.9 nM
IC50 (FLT3 kinase): 0.75 nM
IC50 (MV4-11 cells): 4.6 nM

Cc1cc(-c2nc(C(=O)Nc3cc4cn(CCN5CCC(F)(F)C5)nc4cc3C(C)(C)O)co2)ccn1 [II-97]
IC50 (IRAK4 kinase): 6.9 nM
IC50 (FLT3 kinase): 0.53 nM
IC50 (MV4-11 cells): 13.7 nM

COc1cn2nc(C3CCNCC3)cc2cc1NC(=O)c1coc(-c2ccnc(C)c2)n1 [II-3F]
IC50 (IRAK4 kinase): 6 nM
IC50 (FLT3 kinase): 2.3 nM
IC50 (MV4-11 cells): 15 nM

Cc1cc(-c2nc(C(=O)Nc3cc4cn(CCC(C)(C)O)nc4cc3C(C)(C)O)co2)ccn1 [II-49]
IC50 (IRAK4 kinase): 5.1 nM
IC50 (FLT3 kinase): 0.32 nM
IC50 (MV4-11 cells): 5 nM

COc1cc2nn(C3CCNCC3)cc2cc1NC(=O)c1coc(-c2ccnc(C(F)(F)F)c2)n1 [II-13C]
IC50 (IRAK4 kinase): 6.4 nM
IC50 (FLT3 kinase): 0.44 nM
IC50 (MV4-11 cells): 14.6 nM

CC(C)(O)CCn1cc2cc(NC(=O)c3ccn(-c4ccnc(C(F)(F)F)c4)n3)c(C(C)(C)O)cc2n1 [II-105]
IC50 (IRAK4 kinase): 2.63 nM
IC50 (FLT3 kinase): 39 nM

COc1cc2nn(C3CCNCC3)cc2cc1NC(=O)c1nc(-c2ccnc(C)c2)c[nH]1 [II-5C]
IC50 (IRAK4 kinase): 3.5 nM
IC50 (FLT3 kinase): 0.19 nM
IC50 (MV4-11 cells): 0.78 nM

CC(C)N1CCC(n2cc3cc(NC(=O)c4coc(-c5ccnc(C(F)(F)F)c5)n4)c(C(C)(C)O)cc3n2)CC1 [II-113F]
IC50 (IRAK4 kinase): 4.6 nM
IC50 (FLT3 kinase): 0.38 nM
IC50 (MV4-11 cells): 6 nM

Cc1cc(-c2nc(C(=O)Nc3cc4cn(CC5(F)COC5)nc4cc3C(C)(C)O)co2)ccn1 [II-115]
IC50 (IRAK4 kinase): 11 nM
IC50 (FLT3 kinase): 0.25 nM
IC50 (MV4-11 cells): 2.5 nM

Cc1cc(-c2nc(C(=O)Nc3cc4sc(N5CCOCC5)nc4cc3N3CCC(O)C3)co2)ccn1 (stereo not shown) [II-133]
IC50 (IRAK4 kinase): 4.84 nM
IC50 (FLT3 kinase): 0.26 nM
IC50 (MV4-11 cells): 0.2 nM

Cc1cc(-c2nc(C(=O)Nc3cc4cn(C5CCNCC5)nc4cc3OC(C)C)co2)ccn1 [II-14C]
IC50 (IRAK4 kinase): 7.5 nM
IC50 (FLT3 kinase): 0.72 nM
IC50 (MV4-11 cells): 0.25 nM

CC(C)(O)CCn1cc2cc(NC(=O)c3coc(-c4ccnc(C(F)(F)F)c4)n3)c(C(C)(C)O)nc2n1 [II-131]
IC50 (IRAK4 kinase): 20 nM

Cc1cc(-c2nc(C(=O)Nc3cc4oc(N5CCC(F)(F)CC5)nc4nc3N3CCC(O)C3)co2)ccn1 (stereo not shown) [II-129]
IC50 (IRAK4 kinase): 57 nM
IC50 (FLT3 kinase): 11 nM
IC50 (MV4-11 cells): 49.6 nM

COc1cc2nn(CCC3CCNC3=O)cc2cc1NC(=O)c1coc(-c2ccnc(C)c2)n1 (stereo not shown) [II-2]
IC50 (IRAK4 kinase): 8.4 nM
IC50 (FLT3 kinase): 0.52 nM
IC50 (MV4-11 cells): 14.8 nM

Cc1cc(-c2nc(C(=O)Nc3cc4cn(C5CCC(O)CC5)nc4cc3C(C)(C)O)co2)ccn1 (stereo not shown) [II-54]
IC50 (IRAK4 kinase): 23 nM
IC50 (FLT3 kinase): 0.78 nM
IC50 (MV4-11 cells): 35.3 nM

Cc1cc(-c2nc(C(=O)Nc3cc4oc(N5CC6CC5CO6)nc4nc3N3CCC(O)C3)co2)ccn1 (stereo not shown) [II-125]
IC50 (IRAK4 kinase): 82 nM

COc1cc2nn(C3CCS(=N)(=O)CC3)cc2cc1NC(=O)c1coc(-c2ccnc(C)c2)n1 (stereo not shown) [II-95]
IC50 (IRAK4 kinase): 12 nM
IC50 (FLT3 kinase): 0.47 nM
IC50 (MV4-11 cells): 18 nM

Cc1cc(-n2ccc(C(=O)Nc3cc4oc(N5CCOCC5)nc4nc3N3CCC(O)C3)n2)ccn1 (stereo not shown) [II-123]
IC50 (IRAK4 kinase): 122 nM

Cc1cc(-c2nc(C(=O)Nc3cc4cn(CCN5CC6(COC6)C5)nc4cc3C(C)(C)O)co2)ccn1 [II-51]
IC50 (IRAK4 kinase): 6.5 nM
IC50 (FLT3 kinase): 0.32 nM
IC50 (MV4-11 cells): 16 nM

COc1cc2nn(CCC3CCNC3=O)cc2cc1NC(=O)c1coc(-c2ccnc(C(F)(F)F)c2)n1 (stereo not shown) [II-8]
IC50 (IRAK4 kinase): 25 nM
IC50 (FLT3 kinase): 9.5 nM

Cc1cc(-c2nc(C(=O)Nc3cc4oc(N5CCC(C(F)(F)F)CC5)nc4nc3N3CCC(O)C3)co2)ccn1 (stereo not shown) [II-130]
IC50 (IRAK4 kinase): 26 nM
IC50 (FLT3 kinase): 8.9 nM

Cc1cc(-c2nc(C(=O)Nc3cc4cn(C5CC(C)(C)OC(C)(C)C5)nc4cc3C(C)(C)O)co2)ccn1 [II-116]
IC50 (IRAK4 kinase): 7.54 nM
IC50 (MV4-11 cells): 27.3 nM

COc1cc2nn(CCC3CCNC3=O)cc2cc1NC(=O)c1coc(Br)n1 (stereo not shown) [II-4]
IC50 (IRAK4 kinase): 72 nM
IC50 (FLT3 kinase): 12 nM
